The text below walks through data of PubChem BioAssay (NCI).

Test systems include HCT-15 colon; SK-OV-3 ovarian; HS 578T breast; COLO 205 colon; SR leukemia; CAKI-1 renal; EKVX NSCLC; K-562 leukemia.
Assay in all cases: NCI-60 cell line screen, 48 h

Where “and” joins values, the source holds several entries; their conditions need not be identical. Equal values may be shown once.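 Cultured in 96-well plates, cells were exposed to test compound for 48 hours across five concentrations. The concentration for 50% growth inhibition is given as GI50. The concentration for full growth arrest is given as TGI.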

With `C[N+](C)(C)CC1CCCc2ccccc2C1=O` (stereo not given), the GI50 is 2.75 µM with HCT-15 colon, 2.06 µM with CAKI-1 renal and 0.303 µM in the assay with K-562 leukemia. Also, the TGI in the assay on HCT-15 colon was 8.43 µM; in the assay on SK-OV-3 ovarian it was 34.5 µM; in the assay with HS 578T breast, 85.8 µM; with COLO 205 colon, 42.9 µM; in the assay with SR leukemia, 8.08 µM; with CAKI-1 renal, 6.71 µM and 5.04 µM. Also, the TGI in the assay with EKVX NSCLC was 14.5 µM; in the assay on K-562 leukemia, 6.72 µM and 1.02 µM.
With `O=C(O)COc1ccc2c(=O)c3sc4c(=O)c5ccccc5c(=O)c4c3c(=O)c2c1`, the GI50 is 4.41 µM with HCT-15 colon; 16.6 µM in the assay on SK-OV-3 ovarian; 3.4 µM with HS 578T breast; 13.7 µM with COLO 205 colon; 32.8 µM with SR leukemia; 16.8 µM in the assay with EKVX NSCLC. In addition, the GI50 with K-562 leukemia is 25.6 µM. Further, the TGI in the assay with HCT-15 colon was 18.2 µM; with SK-OV-3 ovarian it was 43.9 µM; in the assay on HS 578T breast it was 19.2 µM; with COLO 205 colon, 31.4 µM; in the assay with SR leukemia it was over 100 µM; in the assay with EKVX NSCLC, 78.8 µM. Besides, in the assay on K-562 leukemia, the TGI was found to be 95.1 µM.
In the case of `COc1ccc(/C=C\[N+](=O)[O-])cc1OC`, the GI50 is 2.19 µM with HCT-15 colon; 13.4 µM with SK-OV-3 ovarian; 2.92 µM in the assay on HS 578T breast; 5.1 µM in the assay on COLO 205 colon; 2.38 µM in the assay on SR leukemia; 1.8 µM in the assay with CAKI-1 renal. The values for the GI50 in the assay with EKVX NSCLC and in the assay with K-562 leukemia were 15.6 µM and 2.36 µM, respectively. The TGI in the assay on HCT-15 colon was determined as 6.45 µM; with SK-OV-3 ovarian it was 26.2 µM; with HS 578T breast, 24.7 µM; in the assay with COLO 205 colon, 18 µM; with SR leukemia it was 7.99 µM; in the assay with CAKI-1 renal, 4.84 µM. For the same compound, the TGI with EKVX NSCLC is 38.1 µM; in the assay with K-562 leukemia it was over 100 µM.
For `O=C(Nc1ccc(Br)cc1F)c1cc(F)ccc1O`, the GI50 with HCT-15 colon was 0.773 µM; in the assay on SK-OV-3 ovarian, 0.405 µM; in the assay on HS 578T breast, 0.405 µM; in the assay with COLO 205 colon it was 2.46 µM; with SR leukemia, 0.476 µM; in the assay with CAKI-1 renal, 0.314 µM. The values for the GI50 in the assay on EKVX NSCLC and with K-562 leukemia were 1.3 µM and 0.445 µM, respectively. Moreover, the TGI in the assay on HCT-15 colon is 7.34 µM; in the assay on SK-OV-3 ovarian, 2.55 µM; in the assay with HS 578T breast, 4.39 µM; in the assay with COLO 205 colon, 6.56 µM; with SR leukemia, over 100 µM; in the assay with CAKI-1 renal it was 2.62 µM. The TGI with EKVX NSCLC is 7.38 µM; in the assay with K-562 leukemia it was over 100 µM.
For `CCN1CCN(C(=O)[C@@]2(C)CC[C@]3(C)CC[C@]4(C)C(=CC(=O)[C@@H]5[C@@]6(C)CC[C@H](OC7C[C@@H](O)[C@@H](O)C(C)O7)C(C)(C)[C@@H]6CC[C@]54C)[C@@H]3C2)CC1` (stereo not given in full), the GI50 was 2.21 µM with HCT-15 colon; 9.96 µM in the assay with SK-OV-3 ovarian; 7.52 µM in the assay with HS 578T breast; 9.13 µM in the assay with COLO 205 colon; 1.06 µM with SR leukemia; 7.81 µM with CAKI-1 renal. The GI50 in the assay on EKVX NSCLC was 3.51 µM; with K-562 leukemia it was 1.08 µM. In addition, the TGI in the assay on HCT-15 colon stood at 8.67 µM; in the assay on SK-OV-3 ovarian it was 19.5 µM; in the assay on HS 578T breast, 17.8 µM; in the assay with COLO 205 colon it was 20.6 µM; in the assay on SR leukemia, 2.57 µM; in the assay on CAKI-1 renal it was 14.8 µM. The TGI in the assay with EKVX NSCLC came out at 10.4 µM; with K-562 leukemia, 2.66 µM.
For `C/C=C(\C)C(=O)O[C@H]1C=CC(=O)O[C@H]1CCC(=O)[C@H](C)O`, the GI50 in the assay on HCT-15 colon was 11.6 µM; in the assay on SK-OV-3 ovarian, 36.5 µM; in the assay with HS 578T breast it was 16.2 µM; in the assay on COLO 205 colon it was 6.07 µM; in the assay on SR leukemia, 2.22 µM; with CAKI-1 renal, 7.16 µM. The figures for the GI50 with EKVX NSCLC and in the assay on K-562 leukemia were 17.8 µM and 4.92 µM, respectively. The TGI in the assay with HCT-15 colon was 27.1 µM; in the assay on SK-OV-3 ovarian, over 100 µM; in the assay with HS 578T breast, 39 µM; in the assay on COLO 205 colon, 22.6 µM; in the assay with SR leukemia, 13.2 µM; in the assay with CAKI-1 renal it was 17.3 µM. Besides, the TGI was found to be 33.6 µM in the assay on EKVX NSCLC and 22.2 µM in the assay with K-562 leukemia.
On to `Cc1ccc(SC2c3ccc(C)cc3Oc3nc(N)c(C#N)c(N)c32)cc1` (stereo not given), for which the GI50 in the assay with HCT-15 colon is 1.72 µM; in the assay with SK-OV-3 ovarian, 10.1 µM; in the assay on HS 578T breast it was 2.4 µM; in the assay with COLO 205 colon, 1.71 µM; in the assay with SR leukemia, 2.16 µM; with EKVX NSCLC, 1.59 µM. Moreover, in the assay on K-562 leukemia, the GI50 was 2.79 µM. The TGI stood at 3.23 µM in the assay on HCT-15 colon; 21.7 µM with SK-OV-3 ovarian; 7.64 µM in the assay with HS 578T breast; 3.32 µM in the assay on COLO 205 colon; 5.54 µM in the assay with SR leukemia; 3.09 µM in the assay on EKVX NSCLC. Besides, the TGI in the assay on K-562 leukemia amounted to 12.4 µM.
Regarding `CC1(C)S[C@@H]2[C@H](NC(=O)C3(N)CCCCC3)C(=O)N2[C@H]1C(=O)O`, the TGI with HCT-15 colon, in the assay on SK-OV-3 ovarian, in the assay on HS 578T breast, in the assay on COLO 205 colon, in the assay with SR leukemia and in the assay with CAKI-1 renal was over 100 µM each time. Also, the TGI with EKVX NSCLC and in the assay with K-562 leukemia was over 100 µM in each case.
Regarding `N#Cc1c(NC(=O)NCc2ccccc2)sc2c1CCCCC2`, the GI50 in the assay on HCT-15 colon is 0.417 µM; with SK-OV-3 ovarian, 0.799 µM; in the assay with HS 578T breast, 0.314 µM; in the assay with COLO 205 colon, 0.521 µM; with SR leukemia, 0.346 µM; with CAKI-1 renal, 0.659 µM. Further, the GI50 is 0.461 µM in the assay on EKVX NSCLC and 0.371 µM with K-562 leukemia. In addition, the TGI was over 100 µM with HCT-15 colon; over 100 µM in the assay with SK-OV-3 ovarian; 9.33 µM with HS 578T breast; 3.74 µM with COLO 205 colon; over 100 µM in the assay with SR leukemia; over 100 µM in the assay on CAKI-1 renal. For the same compound, the TGI with EKVX NSCLC and in the assay with K-562 leukemia was over 100 µM throughout.
As for `O=C(Nc1ccc2ncccc2c1)Nc1ccc2ncccc2c1`, the TGI in the assay with HCT-15 colon, in the assay on SK-OV-3 ovarian, in the assay on HS 578T breast, in the assay with COLO 205 colon, with SR leukemia and with CAKI-1 renal was over 100 µM throughout. Moreover, the TGI with EKVX NSCLC and in the assay on K-562 leukemia was over 100 µM throughout.
